Experimental data: US10125167B2, “Compositions and methods for treating MRSA infections and for sensitizing MRSA to beta-lactam antibiotics” (Arizona Board of Regents on behalf of Arizona State …, priority 2015, dated 2018)
Converted amounts (≈) assume the structure as drawn. Read-outs that look alike come from different tables or passages of the source.

How the values were obtained:
USA100 = experiment: Synergy of ASU014 with antibiotics (MIC/FIC); format: cell-based, S. aureus; details: for Antibiotic MIC, Antibiotic Only: USA100; for Antibiotic MIC +¼ MIC (ASU014) / FIC +¼ MIC (ASU014): USA100, with ¼ MIC ASU014; for Antibiotic MIC +½ MIC (ASU014) / FIC +½ MIC (ASU014): USA100, with ½ MIC ASU014; for Antibiotic MIC +⅛ MIC (ASU014) / FIC +⅛ MIC (ASU014): USA100, with ⅛ MIC ASU014
[1] = test system: MRSA (USA400) BEI: HFH-30364; experiment: MIC against a panel of Gram-positive and Gram-negative bacteria; format: cell-based, Staphylococcus aureus
[2] = test system: MRSA (USA500) BEI: HFH-30522; experiment: as above; format: cell-based, Staphylococcus aureus
[3] = test system: MRSA (USA100) BEI: HFH-30123; experiment: as above; format: cell-based; details: Staphylococcus aureus
P. aeruginosa PAO1 = experiment: as above; format: cell-based; details: Pseudomonas aeruginosa
[4] = test system: MRSA (USA300) BEI: FOO3/HI168; experiment: as above; format: cell-based, Staphylococcus aureus
MSSA = experiment: as above; format: cell-based, S. aureus
MRSA (USA300-LAC) = experiment: as above; format: cell-based, Staphylococcus aureus
USA300-LAC = experiment: Synergy of ASU014 with antibiotics (MIC/FIC); format: cell-based, S. aureus
MSSA UAB637 = experiment: Synergy of ASU014 with antibiotics (MIC/FIC); format: cell-based, S. aureus
USA300-HI168 = experiment: Synergy of ASU014 with antibiotics (MIC/FIC); format: cell-based, S. aureus; details: for Antibiotic MIC, Antibiotic Only: USA300-HI168; for Antibiotic MIC +¼ MIC (ASU014) / FIC +¼ MIC (ASU014): USA300-HI168, with ¼ MIC ASU014; for Antibiotic MIC +½ MIC (ASU014) / FIC +½ MIC (ASU014): USA300-HI168, with ½ MIC ASU014
[5] = Staphylococcus aureus, read-out: MIC
[6] = USA300-HI168, with ⅛ MIC ASU014

With CC1(C)S[C@@H]2[C@H](NC(=O)[C@H](N)c3ccc(O)cc3)C(=O)N2[C@H]1C(=O)O [Amoxicillin, amoxicillin] the MIC (USA100; Staphylococcus aureus, MRSA / USA100, this MRSA strain, antibiotic alone) was > 256 µg/mL, the “Antibiotic MIC, Antibiotic Only” value (USA100) was >256 µg/mL and the “Antibiotic MIC +¼ MIC (ASU014)” value (USA100) was 32 µg/mL. The “FIC +¼ MIC (ASU014)” value (USA100) was 0.38, the “Antibiotic MIC +½ MIC (ASU014)” value (USA100) was 4 µg/mL and the “FIC +½ MIC (ASU014)” value (USA100) was 0.52. For the same molecule, the “Antibiotic MIC +⅛ MIC (ASU014)” value (USA100) was >256 µg/mL.
For O=C(O)c1cn(C2CC2)c2cc(N3CCNCC3)c(F)cc2c1=O [Cipro, Ciprofloxacin], the MIC [1, 5] was 0.5 µg/mL (≈ 1.51 µM), the MIC [2, 5] was > 4 µg/mL and the MIC [3] was > 4 µg/mL. The MIC (P. aeruginosa PAO1) was 0.5 µg/mL (≈ 1.51 µM), the MIC [4, 5] was 0.5 µg/mL (≈ 1.51 µM) and the “Antibiotic MIC, Antibiotic Only” value (USA100) was >32 µg/mL. For the same molecule, the “Antibiotic MIC +¼ MIC (ASU014)” value (USA100) was >32 µg/mL, the “Antibiotic MIC +½ MIC (ASU014)” value (USA100) was >32 µg/mL and the “Antibiotic MIC +⅛ MIC (ASU014)” value (USA100) was >32 µg/mL. The MIC (MSSA; [5]) was 0.25 µg/mL (≈ 0.754 µM).
CCOc1ccc2ccccc2c1C(=O)N[C@@H]1C(=O)N2[C@@H]1SC(C)(C)[C@@H]2C(=O)O [Nafcillin, nafcillin] was tested, and the “Antibiotic MIC, Antibiotic Only” value (USA100) was 32 µg/mL, the “Antibiotic MIC +¼ MIC (ASU014)” value (USA100) was 2 µg/mL and the “FIC +¼ MIC (ASU014)” value (USA100) was 0.31. For the same molecule, the “Antibiotic MIC +½ MIC (ASU014)” value (USA100) was 2 µg/mL, the “FIC +½ MIC (ASU014)” value (USA100) was 0.56 and the “Antibiotic MIC +⅛ MIC (ASU014)” value (USA100) was 8 µg/mL. The “FIC +⅛ MIC (ASU014)” value (USA100) was 0.38.
Cc1onc(-c2ccccc2)c1C(=O)N[C@@H]1C(=O)N2[C@@H]1SC(C)(C)[C@@H]2C(=O)O [Oxa, oxacillin] was tested, and the MIC [1] was 8 µg/mL (≈ 19.9 µM), the MIC [2] was 8 µg/mL (≈ 19.9 µM) and the MIC (MRSA (USA300-LAC)) was 64 µg/mL (≈ 159 µM). The “Antibiotic MIC, Antibiotic Only” value (USA300-LAC) was 64 µg/mL, the “Antibiotic MIC +¼ MIC (ASU014)” value (USA300-LAC; with ¼ MIC ASU014) was 4 µg/mL and the “FIC +¼ MIC (ASU014)” value (USA300-LAC; with ¼ MIC ASU014) was 0.31. For the same molecule, the “Antibiotic MIC +½ MIC (ASU014)” value (USA300-LAC; with ½ MIC ASU014) was 4 µg/mL, the “FIC +½ MIC (ASU014)” value (USA300-LAC; with ½ MIC ASU014) was 0.56 and the “Antibiotic MIC +⅛ MIC (ASU014)” value (USA300-LAC; with ⅛ MIC ASU014) was 8 µg/mL. The “FIC +⅛ MIC (ASU014)” value (USA300-LAC; with ⅛ MIC ASU014) was 0.25, the “Antibiotic MIC, Antibiotic Only” value (MSSA UAB637; MSSA UAB637) was 0.125 µg/mL and the “Antibiotic MIC +¼ MIC (ASU014)” value (MSSA UAB637; MSSA UAB637, with ¼ MIC ASU014) was 0.125 µg/mL. The “Antibiotic MIC +½ MIC (ASU014)” value (MSSA UAB637; MSSA UAB637, with ½ MIC ASU014) was 0.125 µg/mL, the “Antibiotic MIC +⅛ MIC (ASU014)” value (MSSA UAB637; MSSA UAB637, with ⅛ MIC ASU014) was 0.125 µg/mL and the MIC [4] was 32 µg/mL (≈ 79.7 µM). The “Antibiotic MIC +¼ MIC (ASU014)” value (USA100) was 8 µg/mL, the “FIC +¼ MIC (ASU014)” value (USA100) was 0.31 and the “Antibiotic MIC +½ MIC (ASU014)” value (USA100) was 4 µg/mL. The “FIC +½ MIC (ASU014)” value (USA100) was 0.53, the “Antibiotic MIC +⅛ MIC (ASU014)” value (USA100) was 64 µg/mL and the “FIC +⅛ MIC (ASU014)” value (USA100) was 0.63. For the same molecule, the “Antibiotic MIC, Antibiotic Only” value (USA300-HI168) was 2 µg/mL, the “Antibiotic MIC +¼ MIC (ASU014)” value (USA300-HI168) was 0.125 µg/mL and the “FIC +¼ MIC (ASU014)” value (USA300-HI168) was 0.31. For the same molecule, the “Antibiotic MIC +½ MIC (ASU014)” value (USA300-HI168) was 0.063 µg/mL, the “FIC +½ MIC (ASU014)” value (USA300-HI168) was 0.53 and the “Antibiotic MIC +⅛ MIC (ASU014)” value (USA300-HI168; [6]) was 0.5 µg/mL. For the same molecule, the “FIC +⅛ MIC (ASU014)” value (USA300-HI168; [6]) was 0.38 and the MIC (MSSA) was <0.25 µg/mL.
In the case of [H]/N=C(/N)N[C@H]1[C@H](O)[C@@H](O)[C@H](O[C@@H]2O[C@@H](C)[C@](O)(C=O)[C@H]2O[C@@H]2O[C@@H](CO)[C@H](O)[C@@H](O)[C@@H]2NC)[C@@H](N/C(N)=N\[H])[C@@H]1O [Streptomycin], the “Antibiotic MIC, Antibiotic Only” value (USA300-HI168) is reported as 4 µg/mL, the “Antibiotic MIC +¼ MIC (ASU014)” value (USA300-HI168) is reported as 2 µg/mL and the “FIC +¼ MIC (ASU014)” value (USA300-HI168) is reported as 0.75. For the same molecule, the “Antibiotic MIC +½ MIC (ASU014)” value (USA300-HI168) was 0.5 µg/mL, the “FIC +½ MIC (ASU014)” value (USA300-HI168) was 0.63 and the “Antibiotic MIC +⅛ MIC (ASU014)” value (USA300-HI168; [6]) was 4 µg/mL.
